The source of these data is patent publication US20110183978A1, “Phenylpyri(mi)dinylazoles” (Bayer CropScience AG, priority 2009, published 2011).

Read-outs that look alike come from different tables or passages of the source.

One data set relates to Fusarium proliferatum. Description: Example I: production of fumonisin FB1 by Fusarium proliferatum (microtitre plates). The class given is cell-based. The settings on record: 120 h.
In data set [1] the test system is Fusarium graminearum. Description: microbe, parasite or virus in culture. The data set is classed as cell-based.
The test system of a further data set is Sphaerotheca fuliginea. Description: Example L: in vivo test on Sphaerotheca fuliginea (powdery mildew on cucumber/protective). The settings on record: Podosphaera fuliginea, 168 h, cucumber, protective, assessment 7 days after inoculation, read-out: % Wirkungsgrad. The method in brief:
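Young cucumber plants sprayed at stated dosage with compound in DMF/alkylaryl polyglycol ether emulsifier diluted in water; inoculated with S. fuliginea spores one day later. Kept in greenhouse at 70% relative humidity, 23° C; protective activity assessed 7 days after inoculation.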

The next data set deals with Alternaria solani. Briefly: Example M: in vivo test on Alternaria solani (leaf blotch disease/tomato/protective). The note with it: 168 h, tomato, protective, 500 ppm active substance, assessed 7 days after inoculation, read-out: % Wirkungsgrad (activity level). The method in brief: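 Alternaria solani infection on tomato scored 7 days post-inoculation. Before inoculation, young plants received a protective spray at the stated application dose; formulation was compound mixed with N,N-dimethylformamide and emulsifier, water-diluted.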

Another data set relates to Plasmopara viticola. Briefly: Example N: in vivo test on Plasmopara viticola (downy mildew, vine/protective). The settings on record: 144 h, vine, protective, assessment 6 days after inoculation, read-out: % Wirkungsgrad. The method in brief:
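Assessment of downy mildew on vines took place 6 days post-inoculation, after 1 day of moist incubation. Before infection, the young plants received a protective spray of compound emulsified with alkylaryl polyglycol ethers and diluted with water to the stated application rate.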

Another data set has as its system Venturia inaequalis. Description: Example O: in vivo test on Venturia inaequalis (apple scab/protective). The note with it: 240 h, protective, assessment 10 days after inoculation, read-out: % Wirkungsgrad. The method in brief:
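Young plants received a preventive spray of compound formulated as an emulsifier-containing aqueous dilution at the given application rate, then were inoculated with apple scab fungus. Disease was scored 10 days post-inoculation.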

The test system of another data set is Botrytis cinerea. Description: Example P: in vivo test on Botrytis cinerea (gray mould on bean/protective). The note with it: 48 h, bean, protective, 250 ppm active substance, assessed 2 days after inoculation, read-out: % Wirkungsgrad (activity level). The method in brief: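 Infection blotch size on leaves was scored 2 days after placing 2 Botrytis-colonised agar pieces per leaf. Inoculation followed drying of a protective spray applied to young plants at the stated dosage. Spray was prepared by diluting compound with solvent and alkylaryl polyglycol ether emulsifier in water.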

Another data set concerns Leptosphaeria nodorum. Description: Example Q: in vivo test on Leptosphaeria nodorum (glume blotch in wheat/protective). The note with it: Parastagonospora nodorum, 192 h, wheat, protective, assessment 8 days after inoculation, read-out: % Wirkungsgrad. The method in brief:
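Protective test: young wheat plants sprayed with compound formulated in N,N-dimethylacetamide plus alkylaryl polyglycol ether emulsifier, diluted in water to the stated dose. After drying, plants inoculated with L. nodorum spore suspension; disease assessed 8 days post-inoculation.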

A further data set concerns Septoria tritici. Description: Example R: in vivo test on Septoria tritici (leaf blotch in wheat/protective). The settings on record: Zymoseptoria tritici, 504 h, wheat, protective, 1000 ppm active substance, assessed 21 days after inoculation, read-out: % Wirkungsgrad (activity level). The method in brief:
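Protective test: young wheat plants sprayed with compound in N,N-dimethylacetamide/alkylaryl polyglycol ether emulsifier diluted in water, dried, then inoculated with Septoria tritici spore suspension. Disease assessed 21 days after inoculation.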

For a further data set, the system named is Rhynchosporium secalis. Description: Example S: in vivo test on Rhynchosporium secalis (leaf scald in barley/protective). The settings on record: 336 h, barley, protective, 1000 ppm active substance, assessed 14 days after inoculation, read-out: % Wirkungsgrad (activity level). The method, then:
Solvent: 49 parts by weight N,N-dimethylacetamide Emulsifier: 1 part by weight alkylaryl polyglycol ethers For the preparation of a suitable active substance preparation, 1 part by weight of active substance is mixed with the stated quantities of solvent and emulsifier and the concentrate is diluted to the desired concentration with water. For the testing for protective activity, young plants are sprayed with the active substance preparation at the stated application dosage. After drying of the spray coating, the plants are sprayed with spores with a spore suspension of Rhynchosporium secalis. […] 14 days after the inoculation, the assessment takes place.

For data set [2], the system named is Fusarium nivale (var. majus). Description: whole plant or invertebrate. The class given is in vivo. The settings on record: Microdochium nivale, in Triticum aestivum, 120 h, read-out: % Wirkungsgrad (activity level).
Data set [3] has as its system Fusarium graminearum. Briefly: whole plant or invertebrate. The note with it: in Hordeum vulgare, 120 h, read-out: % Wirkungsgrad (activity level). The data set is classed as in vivo.
The test system of another data set is Pythium ultimum. Briefly: Example U: in vivo test on Pythium ultimum (root rot/damping off in cotton/seed treatment). The settings on record: 50 g/dt; cotton seed treatment; emergence counted after 7 days. The method, then: The test was performed under greenhouse conditions. Cotton seeds, treated with an active compound according to the invention or a combination of active compounds according to the invention were sown in 6*6 cm size vessels, in a mixture of steamed field earth and sand (1:1). The test compound/s were dissolved in N-methyl-2-pyrrolidone and diluted to the desired concentration with water. The plants were grown at 10° C. Perlite was inoculated with mycelium from Pythium ultimum. 1 mL of the infected perlite was distributed between the treated cotton seeds. […] The assessment was made by counting the emergence.

Another data set relates to Pyricularia oryzae. Description: whole plant or invertebrate. The data set is classed as in vivo. The settings on record: 120 h, read-out: % Activity level.
Another data set deals with Rhizoctonia solani. Description: Example W: in vivo test on Rhizoctonia solani (sheath blight in rice/protective). The settings on record: 96 h, rice, protective, 250 ppm active substance, assessed 4 days after inoculation, read-out: % Activity level. The method in brief: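 Young rice plants sprayed protectively with compound in acetone/alkylaryl polyglycol ether emulsion diluted in water at stated dosage. Inoculated with R. solani hyphae one day later; disease assessed 4 days post-inoculation.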

For another data set, the system named is Cochliobolus miyabeanus. Briefly: Example X: in vivo test on Cochliobolus miyabeanus (brown spot disease, rice/protective). The note with it: Bipolaris oryzae, 96 h, read-out: % Activity level.
Another data set relates to Gibberella zeae. The data set is classed as in vivo. The settings on record: 250 ppm; rice, protective; assessment 5 days after inoculation.
Another data set is described as follows: physchem. The settings on record: LogPA.

In general, chromatographic logP refers to a lipophilicity value derived from retention on a column. The low end stands for lower lipophilicity, the high end for higher lipophilicity. Take `CCC(=O)Nc1cc(-c2cn(CC)nc2-c2ccc(F)cc2)ccn1` [Compound 198]: the inhibition at 50 µM in the data set on Fusarium proliferatum (Fusarium proliferatum growth, OD 620, 5 days, read-out: % Inhibition des Pilzwachstums bei 50 μM) is 99%; in the data set with Fusarium proliferatum (Fusarium proliferatum, 5 days at 20° C., HPLC-MS/MS, read-out: % Inhibition der FB1 produktion bei 50 μM), 100%; with Fusarium graminearum [1] (72 h, read-out: % Inhibition des Pilzwachstums bei 50 μM), 100%; in the data set with Fusarium graminearum [1] (168 h, read-out: % Inhibition der DON/AcDON produktion bei 50 μM), 100%. The pest or weed control at 500 ppm in the data set on Sphaerotheca fuliginea is 99%; in the data set on Alternaria solani, 93%. For the same compound, the pest or weed control at 100 ppm in the data set with Plasmopara viticola came to 92%; in the data set with Venturia inaequalis it was 96%. Besides, the pest or weed control at 250 ppm in the data set on Botrytis cinerea turned out to be 99%; in the data set with Pyricularia oryzae, 85%; in the data set on Rhizoctonia solani it was 88%; in the data set on Cochliobolus miyabeanus, 90%. In addition, the pest or weed control at 1000 ppm in the data set on Leptosphaeria nodorum is 100%; in the data set on Septoria tritici, 100%; with Rhynchosporium secalis, 90%; in [2], 100%; in the data set on Fusarium graminearum [3] it was 100%. Moreover, the “% Activity level” value was 88% in the data set with Pythium ultimum and 80% with Gibberella zeae. Also, the chromatographic logP in the data set “physchem” worked out at 1.82.
